According to patent US6486326B2, “iso-CBI and iso-CI analogs of CC-1065 duocarmycins” (The Scripps Research Institute, priority 1997, dated 2002):

Tests used:
w836 DNA (146 bp) = experiment: DNA alkylation selectivity and efficiency, thermally-induced strand cleavage of w836 DNA; assay type: biochemical
Experimental: FIG. 6 illustsrates thermally-induced strand cleavage of w836 DNA (146 bp, nucleotide nos. 5189-91): DNA-agent incubation for 24 h ((−)-iso-CBI-TMI) at 25° C., removal of unbound agent and 30 min of thermolysis (100° C.), followed by denaturing 8% PAGE and autoradiography; lane 1, control DNA; lanes 2-5, Sanger G, C, A, and T sequencing reactions; lanes 6-8 (−)-iso-CBI-TMI ([…] to 1×10^−5 M); lanes 9-10, (+)-duocarmycin SA (1×10^−5 to 1×10^−6 M); lanes 11-12, (+)-iso-CBI-TMI (1×10^−2 and 1×10^−3).
DNA Alkylation Selectivity and Efficiency: The DNA alkylation properties of the agents were examined within w794 and w836 duplex DNA for which comparative results are available for related agents. (Boger, D. L., et al., J. Am. Chem. Soc. 1994, 116, 11335; Boger, D. L., et al., J. Am. Chem. Soc. 1994, 116, 6461; and Boger, D. L., et al., J. Am. Chem. Soc. 1995, 117, 11647) The alkylation site identification and the assessment of the relative selectivity among the available sites were obtained by thermally-induced strand cleavage of the singly 5′ end-labeled duplex DNA after exposure to the agents. […]

[1] = system: w794 DNA (SV40 DNA segment, 144 bp); settings: from earlier studies (refs 10, 11); cited from earlier work

| SMILES | DNA alkylation sites / selectivity (w836 DNA (146 bp)) | DNA alkylation efficiency, less efficient than duocarmycin SA [1] |
| --- | --- | --- |
| COc1cc2cc(C(=O)N3CC4CC45C(=O)c4ccccc4C=C35)[nH]c2c(OC)c1OC (single isomer, unassigned; (+)) [(+)-iso-CBI-TMI, 2-[(5,6,7-Trimethoxyindol-2-yl)carbonyl]-1,2,9,9a-tetrahydrocyclopropa[c]benzo[f]indol-8-one] | selectivity identical to that of ent-(-duocarmycin SA |  |
| COC(=O)[C@]1(C)NC2=C(C1=O)[C@@]13C[C@@H]1CN(C(=O)c1cc4cc(OC)c(OC)c(OC)c4[nH]1)C3=CC2=O [duocarmycin A] |  | ca. 10 × |
